Laboratory results: ChEMBL document CHEMBL1201862, “PubChem BioAssay data set” (2004)
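How tested: cells in 96-well plates exposed to compound for 48 hours at five concentrations. GI50 is the concentration that inhibits growth by half.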 Active and inactive are the calls of the source. Rule as the data show it: active = GI50 up to about 1.1 µM and inactive = higher.

Key:
Assay in all cases: DTP human tumour cell line panel, 48 h
[1] = tested on: A549
[2] = tested on: CAKI-1
[3] = tested on: COLO 205
[4] = tested on: EKVX
[5] = tested on: HCT-116
[6] = tested on: IGROV-1
[7] = tested on: KM12
[8] = tested on: M14
[9] = tested on: NCI-H226
[10] = tested on: NCI-H23
[11] = tested on: OVCAR-5
[12] = tested on: SK-MEL-2
[13] = tested on: SK-OV-3
[14] = tested on: U-251
[15] = tested on: HCC 2998
[16] = tested on: K562
[17] = tested on: MOLT-4
[18] = tested on: HL-60

| Compound | GI50 [1] | GI50 [2] | GI50 [3] | GI50 [4] | GI50 [5] | GI50 [6] | GI50 [7] | GI50 [8] | GI50 [9] | GI50 [10] | GI50 [11] | GI50 [12] | GI50 [13] | GI50 [14] | GI50 [15] | GI50 [16] | GI50 [17] | GI50 [18] |
| --- | --- | --- | --- | --- | --- | --- | --- | --- | --- | --- | --- | --- | --- | --- | --- | --- | --- | --- |
| O=C1/C=C(/c2ccc(O)cc2)[C@@H](O)Cc2ccc(O)cc2O1 | 56.1 µM (inactive) | 29.1 µM (inactive) | > 100 µM (inactive) | > 100 µM (inactive) | > 100 µM (inactive) | > 100 µM (inactive) | 88.1 µM (inactive) | > 100 µM (inactive) | 0.859 µM (active) | > 100 µM (inactive) | > 100 µM (inactive) | > 100 µM (inactive) | 35.7 µM (inactive) | > 100 µM (inactive) | – | – | – | – |
| COc1ccc2oc3c(OC)c(OC)c(OC)cc3c(=O)c2c1 | > 100 µM (inactive) | > 100 µM (inactive) | > 100 µM (inactive) | 76 µM (inactive) | > 100 µM (inactive) | > 100 µM (inactive) | – | > 100 µM (inactive) | – | > 100 µM (inactive) | > 100 µM (inactive) | > 100 µM (inactive) | > 100 µM (inactive) | 71.6 µM (inactive) | > 100 µM (inactive) | > 100 µM (inactive) | > 100 µM (inactive) | – |
| Cc1cc(N(CCC#N)CCC#N)ccc1/C=C(\NC(=O)/C=C/c1ccccc1)NC(=O)Nc1ccc(Cl)cc1 | 32.5 µM (inactive) | 19.2 µM (inactive) | > 100 µM (inactive) | 47.9 µM (inactive) | 23.6 µM (inactive) | 38.8 µM (inactive) | 15 µM (inactive) | > 100 µM (inactive) | 30.9 µM (inactive) | 22.2 µM (inactive) | > 100 µM (inactive) | > 100 µM (inactive) | – | 14.3 µM (inactive) | 58.7 µM (inactive) | 2.13 µM (inactive) | > 100 µM (inactive) | 37.5 µM (inactive) |
| N/N=C1\C(=O)N(C2CCCCCC2)C(=O)C1C(=O)NC1CCCCCC1 (configuration not stated) | 49.1 µM (inactive) | – | 35.1 µM (inactive) | 32.7 µM (inactive) | – | 38 µM (inactive) | 39.5 µM (inactive) | 35 µM (inactive) | – | 22.4 µM (inactive) | 39.3 µM (inactive) | 19.1 µM (inactive) | – | 15.8 µM (inactive) | 25.6 µM (inactive) | 30.3 µM (inactive) | 22 µM (inactive) | 19.8 µM (inactive) |
| CCC1=CCC(P(=O)(c2ccccc2)c2ccccc2)CC1C (configuration not stated) | 37.1 µM (inactive) | > 100 µM (inactive) | 35 µM (inactive) | 35.3 µM (inactive) | 22.9 µM (inactive) | 47.1 µM (inactive) | 35.1 µM (inactive) | 32.6 µM (inactive) | 39.2 µM (inactive) | 39.7 µM (inactive) | 65.2 µM (inactive) | 29.7 µM (inactive) | 62.8 µM (inactive) | 46.1 µM (inactive) | – | 35.2 µM (inactive) | 20.5 µM (inactive) | 22.2 µM (inactive) |
| C[C@]12CCC(=O)C(O)=C1CC[C@@H]1C2CC[C@]2(C)NC(=O)CCC12 (some centres not stated) | > 100 µM (inactive) | > 100 µM (inactive) | > 100 µM (inactive) | > 100 µM (inactive) | > 100 µM (inactive) | > 100 µM (inactive) | > 100 µM (inactive) | > 100 µM (inactive) | > 100 µM (inactive) | > 100 µM (inactive) | > 100 µM (inactive) | > 100 µM (inactive) | > 100 µM (inactive) | > 100 µM (inactive) | – | > 100 µM (inactive) | > 100 µM (inactive) | > 100 µM (inactive) |
| C/C(N)=[N+](/C)[O-] | > 100 µM (inactive) | – | 17.2 µM (inactive) | > 100 µM (inactive) | > 100 µM (inactive) | > 100 µM (inactive) | > 100 µM (inactive) | > 100 µM (inactive) | > 100 µM (inactive) | > 100 µM (inactive) | > 100 µM (inactive) | > 100 µM (inactive) | > 100 µM (inactive) | > 100 µM (inactive) | 36.9 µM (inactive) | 39.5 µM (inactive) | > 100 µM (inactive) | > 100 µM (inactive) |
| Cc1cc2c(=O)cc(-c3ccc(Cl)c(Cl)c3)oc2c(C(=O)O)c1C | > 100 µM (inactive) | > 100 µM (inactive) | > 100 µM (inactive) | > 100 µM (inactive) | > 100 µM (inactive) | > 100 µM (inactive) | > 100 µM (inactive) | > 100 µM (inactive) | > 100 µM (inactive) | > 100 µM (inactive) | > 100 µM (inactive) | > 100 µM (inactive) | > 100 µM (inactive) | > 100 µM (inactive) | – | > 100 µM (inactive) | > 100 µM (inactive) | – |
